Assay results from US11439641B2, “Pyrimidine JAK inhibitors for the treatment of skin diseases” (THERAVANCE BIOPHARMA R&D IP, LLC, priority 2019, dated 2022).
In brackets after ≈: the same amount, converted by molar mass.

How the values were obtained:
[1] = biological target: JAK1 (Homo sapiens (Human), UniProt P23458); assay: Biochemical JAK and Tyk2 Kinase Assays (LanthaScreen), JAK1; settings: 25 μM ATP (Km), pIC50 converted to pKi by Cheng-Prusoff
[2] = biological target: JAK2 (Homo sapiens (Human), UniProt O60674); assay: Biochemical JAK and Tyk2 Kinase Assays (LanthaScreen), JAK2; settings: 3 μM ATP (Km); pIC50 converted to pKi by Cheng-Prusoff
Description: (§1) Assay 1: Biochemical JAK and Tyk2 Kinase Assays
(§2) A panel of four LanthaScreen JAK biochemical assays (JAK1, 2, 3 and Tyk2) were carried in a common kinase reaction buffer (50 mM HEPES, pH 7.5, 0.01% Brij-35, 10 mM MgCl2, and 1 mM EGTA). Recombinant GST-tagged JAK enzymes and a GFP-tagged STAT1 peptide substrate were obtained from Life Technologies.
(§3) Serially or discretely diluted compounds were pre-incubated with each of the four JAK enzymes and the substrate in white 384-well microplates (Corning) at ambient temperature for 1 h. ATP was subsequently added to initiate the kinase reactions in 10 μL total volume, with 1% DMSO. The final enzyme concentrations for JAK1, 2, 3 and Tyk2 are 4.2 nM, 0.1 nM, 1 nM, and 0.25 nM respectively; the corresponding Km ATP concentrations used are 25 μM, 3 μM, 1.6 μM, and 10 μM; while the substrate concentration is 200 nM for all four assays. Kinase reactions were allowed to proceed for 1 hour at ambient temperature before a 10 μL preparation of EDTA (10 mM final concentration) and Tb-anti-pSTAT1 (pTyr701) antibody (Life Technologies, 2 nM final concentration) in TR-FRET dilution buffer (Life Technologies) was added. The plates were allowed to incubate at ambient temperature for 1 h before being read on the EnVision reader (Perkin Elmer). Emission ratio signals (520 nm/495 nm) were recorded and utilized to calculate the percent inhibition values based on DMSO and background controls.
(§4) For dose-response analysis, percent inhibition data were plotted vs. compound concentrations, and IC50 values were determined from a 4-parameter robust fit model with the Prism software (GraphPad Software). Results were expressed as pIC50 (negative logarithm of IC50) and subsequently converted to pKi (negative logarithm of dissociation constant, Ki) using the Cheng-Prusoff equation.

[3] = biological target: JAK3 (Homo sapiens (Human), UniProt P52333); assay: Biochemical JAK and Tyk2 Kinase Assays (LanthaScreen), JAK3; settings: 1.6 μM ATP (Km), pIC50 converted to pKi by Cheng-Prusoff; for Ki: read-out: JAK 3 (pKi) (converted)
[4] = biological target: Tyk2 (Homo sapiens (Human), UniProt P29597); assay: Biochemical JAK and Tyk2 Kinase Assays (LanthaScreen), Tyk2; settings: 10 μM ATP (Km), pIC50 converted to pKi by Cheng-Prusoff; for Ki: read-out: Tyk 2 (pKi) (converted)
Description: as §1, §2, §3, §4

[5] = system: IL-2 stimulated pSTAT5 in Tall-1 T cells; assay: Inhibition of IL-2 Stimulated pSTAT5 in Tall-1 T Cells; assay type: cell-based; settings: Tall-1 human T cell line, IL-2 300 ng/mL, AlphaLisa; for IC50: read-out: Tall-1 IL2 pSTAT5 (pIC50) (converted)
Summary of the method: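 Cells preincubated with compound 1 hour at 37° C, then stimulated with IL-2 (final 300 ng/mL) for 30 minutes. After lysis, pSTAT5 (Tyr694/699) read by AlphaLISA luminescence. IC50 from inhibition curves, reported as pIC50 (mean±SD).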

[6] = system: Caco-2 cell monolayer; assay: Caco-2 Permeation Assay; assay type: in vitro ADME; settings: Papp, 5 μM compound; for Cacoverap Kp 10^−6 cm/sec: A→B in the presence of 25 μM verapamil (P-gp inhibitor); for Caco Kp 10^−6 cm/sec: apical to basal (A→B)
Description: Assay 3: Caco-2 Permeation Assay
The Caco 2 permeability assay was used as a surrogate for assessment of skin permeability. This assay measures the in vitro permeability across a monolayer of Caco-2 cells, which morphologically and functionally resemble the enterocytes of the small intestine.
CacoReady 24-well transwell plates were obtained from ADMEcell (Alameda, Calif.). The compounds were evaluated at a concentration of 5 μM from 10 mM DMSO stock solutions in duplicate (n=2). Transport in the apical to basal (A→B) direction was determined in Caco 2 cell monolayers. From these values the apparent permeability (Papp) was calculated. To inform on the potential of the compound to be a P-gp substrate, the transport of the compound across the Caco-2 cell monolayer was also determined in the presence of 25 μM of the known P-gp inhibitor verapamil (Yusa and Tsuruo et al., Cancer Research, vol. 49, no. 18, 1989, pp. 5002-06).
Caco-2 culture media consisted of standard filtered DMEM, FCS 10%, L-Glutamine 1%, and PenStrep 1%. The experiment was conducted at 37° C. and in a CO2 (5%) incubator. The basal assay plate was prepared by adding 750 pt of transport buffer to A→B wells. A CacoReady™ plate was prepared by removing the Caco-2 media from the apical wells and replacing with fresh transport media (200 pt repeated for a total of 3 washes). Blank media (200 μL) was then replaced with diluted compound. To begin the incubation, the basal plate was removed from the incubator and the apical section was added on top of it. Samples were collected from the apical and basal compartments for time zero (t0). Samples were collected again after 120 minutes (t120) from the apical and basal compartments. All samples were diluted and prepared for bioanalysis by LC-MS/MS. The permeability coefficients (Papp, mean A to B) and (Papp, mean A to B+Verapamil) in cm/sec were calculated as dQ (flux)/(dt×Area×concentration).
In this assay, a compound with a Papp value of more than about 12×10−6 cm/sec is considered to have high permeability.

[7] = physchem; settings: thermodynamic from solid
[8] = Aqueous Solubility Assay; settings: PBS buffer pH 7.4; maximum upper limit 1,000 μM
Description: Assay 5: Aqueous Solubility Assay
The purpose of this assay was to quantify the solubility of test compounds in pH 4 and pH 7.4 PBS buffers. The assay required 40 μL of 10 mM DMSO test compound solution per desired buffer in addition to 20 μL required to make a test standard. For example, to test a compound in both buffers, 100 μL (2*40 μL+20 μL) of 10 mM DMSO compound stock solution was required.
The standard was created by diluting 20 μL of 10 mM DMSO compound stock solution into 180 μL of methanol and was shaken for five minutes to ensure solution uniformity. […] This 1,000 μM solution was run on an Agilent 1260 LC-MS system by injecting 2 μL in order to obtain the peak area. For the test solutions, 40 μL of 10 mM DMSO compound stock solution, per PBS buffer condition, were dried down into a powder overnight. Once in powder form, 400 μL of the desired PBS buffer was added to the powder and allowed to shake vigorously for four hours. The maximum theoretical concentration for this sample solution was 1,000 μM. After four hours of shaking, the samples were centrifuged for 10 minutes at 3,000 RPM before injecting 2 μL on the same Agilent 1260 LC-MS system to obtain the peak area.
In Table 6 below, A represents a value above 500, B represents a value between 250 and 500, C represents a value between 50 and 250, D represents a value between 10 and 50, and E represents a value below 10.

[9] = Solubility Assay in Organic Excipients; settings: maximum upper limit 20,000 μM; for Solubility in MCT (mg/mL): medium chain triglycerides (MCT)
[10] = oil or lipid, Solubility in MCT (mg/mL)
[11] = organic solvent or mixture, Solubility in Diisopropyl adipate (mg/mL)
[12] = organic solvent or mixture, Solubility in PEG400 (mg/mL)
[13] = organic solvent or mixture, Solubility in Propylene glycol (mg/mL)

Sequence of JAK3 (P52333 whole entry): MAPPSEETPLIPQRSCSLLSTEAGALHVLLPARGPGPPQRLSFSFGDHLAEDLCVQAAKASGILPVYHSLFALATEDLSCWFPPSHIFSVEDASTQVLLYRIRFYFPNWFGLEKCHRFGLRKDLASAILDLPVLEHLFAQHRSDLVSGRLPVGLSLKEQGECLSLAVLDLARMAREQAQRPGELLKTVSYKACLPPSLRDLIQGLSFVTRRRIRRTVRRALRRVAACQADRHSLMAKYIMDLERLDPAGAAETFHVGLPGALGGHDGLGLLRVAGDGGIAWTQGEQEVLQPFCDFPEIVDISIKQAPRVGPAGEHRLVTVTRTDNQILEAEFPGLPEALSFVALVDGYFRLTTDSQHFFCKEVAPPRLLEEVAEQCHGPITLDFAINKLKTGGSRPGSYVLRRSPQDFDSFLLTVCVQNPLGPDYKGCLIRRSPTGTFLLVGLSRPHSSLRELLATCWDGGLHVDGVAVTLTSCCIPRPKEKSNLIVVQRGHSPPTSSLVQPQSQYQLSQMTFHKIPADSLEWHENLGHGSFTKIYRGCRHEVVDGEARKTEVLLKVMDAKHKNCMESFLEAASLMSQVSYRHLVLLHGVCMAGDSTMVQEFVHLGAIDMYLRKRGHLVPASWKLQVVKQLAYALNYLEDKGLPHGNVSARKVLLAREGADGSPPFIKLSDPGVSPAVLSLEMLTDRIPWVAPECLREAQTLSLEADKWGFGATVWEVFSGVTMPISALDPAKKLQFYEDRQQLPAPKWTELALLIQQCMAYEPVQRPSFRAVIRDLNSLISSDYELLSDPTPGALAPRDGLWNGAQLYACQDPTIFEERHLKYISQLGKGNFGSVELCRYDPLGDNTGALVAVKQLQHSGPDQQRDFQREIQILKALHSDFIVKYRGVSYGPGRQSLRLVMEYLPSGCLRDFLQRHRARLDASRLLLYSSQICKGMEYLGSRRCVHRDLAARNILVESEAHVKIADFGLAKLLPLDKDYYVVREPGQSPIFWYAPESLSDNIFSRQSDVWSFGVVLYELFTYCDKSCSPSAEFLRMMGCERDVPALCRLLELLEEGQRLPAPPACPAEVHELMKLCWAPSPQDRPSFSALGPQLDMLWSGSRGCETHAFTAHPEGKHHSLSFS
Sequence of JAK2 (O60674 whole entry): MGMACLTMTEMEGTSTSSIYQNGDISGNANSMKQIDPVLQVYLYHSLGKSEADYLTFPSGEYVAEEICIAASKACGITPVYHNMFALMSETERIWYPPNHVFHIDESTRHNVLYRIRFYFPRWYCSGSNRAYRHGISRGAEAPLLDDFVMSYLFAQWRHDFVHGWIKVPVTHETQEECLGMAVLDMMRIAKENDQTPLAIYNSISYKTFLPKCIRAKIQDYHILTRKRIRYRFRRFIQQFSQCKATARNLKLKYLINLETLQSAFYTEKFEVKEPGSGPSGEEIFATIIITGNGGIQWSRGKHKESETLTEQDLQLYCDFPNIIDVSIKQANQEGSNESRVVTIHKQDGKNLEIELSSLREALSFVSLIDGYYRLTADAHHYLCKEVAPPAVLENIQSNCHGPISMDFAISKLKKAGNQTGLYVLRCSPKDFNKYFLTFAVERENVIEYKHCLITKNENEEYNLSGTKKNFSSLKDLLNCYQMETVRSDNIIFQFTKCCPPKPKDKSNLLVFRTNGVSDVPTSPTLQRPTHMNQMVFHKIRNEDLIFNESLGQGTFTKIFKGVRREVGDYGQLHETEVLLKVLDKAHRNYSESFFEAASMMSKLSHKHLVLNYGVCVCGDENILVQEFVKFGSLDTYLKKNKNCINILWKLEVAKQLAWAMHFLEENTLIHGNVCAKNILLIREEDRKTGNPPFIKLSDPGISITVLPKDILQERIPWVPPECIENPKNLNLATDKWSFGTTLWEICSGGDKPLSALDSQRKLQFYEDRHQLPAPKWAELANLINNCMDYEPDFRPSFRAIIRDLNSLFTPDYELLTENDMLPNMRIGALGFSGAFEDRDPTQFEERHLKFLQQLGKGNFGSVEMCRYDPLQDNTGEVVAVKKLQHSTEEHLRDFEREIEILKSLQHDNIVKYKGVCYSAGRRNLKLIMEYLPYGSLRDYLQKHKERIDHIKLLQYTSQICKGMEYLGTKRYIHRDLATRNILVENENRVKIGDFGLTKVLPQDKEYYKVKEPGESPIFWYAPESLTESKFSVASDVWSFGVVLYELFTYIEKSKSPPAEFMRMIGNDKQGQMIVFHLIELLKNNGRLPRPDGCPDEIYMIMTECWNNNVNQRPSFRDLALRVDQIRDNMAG
Sequence of Tyk2 (P29597 whole entry): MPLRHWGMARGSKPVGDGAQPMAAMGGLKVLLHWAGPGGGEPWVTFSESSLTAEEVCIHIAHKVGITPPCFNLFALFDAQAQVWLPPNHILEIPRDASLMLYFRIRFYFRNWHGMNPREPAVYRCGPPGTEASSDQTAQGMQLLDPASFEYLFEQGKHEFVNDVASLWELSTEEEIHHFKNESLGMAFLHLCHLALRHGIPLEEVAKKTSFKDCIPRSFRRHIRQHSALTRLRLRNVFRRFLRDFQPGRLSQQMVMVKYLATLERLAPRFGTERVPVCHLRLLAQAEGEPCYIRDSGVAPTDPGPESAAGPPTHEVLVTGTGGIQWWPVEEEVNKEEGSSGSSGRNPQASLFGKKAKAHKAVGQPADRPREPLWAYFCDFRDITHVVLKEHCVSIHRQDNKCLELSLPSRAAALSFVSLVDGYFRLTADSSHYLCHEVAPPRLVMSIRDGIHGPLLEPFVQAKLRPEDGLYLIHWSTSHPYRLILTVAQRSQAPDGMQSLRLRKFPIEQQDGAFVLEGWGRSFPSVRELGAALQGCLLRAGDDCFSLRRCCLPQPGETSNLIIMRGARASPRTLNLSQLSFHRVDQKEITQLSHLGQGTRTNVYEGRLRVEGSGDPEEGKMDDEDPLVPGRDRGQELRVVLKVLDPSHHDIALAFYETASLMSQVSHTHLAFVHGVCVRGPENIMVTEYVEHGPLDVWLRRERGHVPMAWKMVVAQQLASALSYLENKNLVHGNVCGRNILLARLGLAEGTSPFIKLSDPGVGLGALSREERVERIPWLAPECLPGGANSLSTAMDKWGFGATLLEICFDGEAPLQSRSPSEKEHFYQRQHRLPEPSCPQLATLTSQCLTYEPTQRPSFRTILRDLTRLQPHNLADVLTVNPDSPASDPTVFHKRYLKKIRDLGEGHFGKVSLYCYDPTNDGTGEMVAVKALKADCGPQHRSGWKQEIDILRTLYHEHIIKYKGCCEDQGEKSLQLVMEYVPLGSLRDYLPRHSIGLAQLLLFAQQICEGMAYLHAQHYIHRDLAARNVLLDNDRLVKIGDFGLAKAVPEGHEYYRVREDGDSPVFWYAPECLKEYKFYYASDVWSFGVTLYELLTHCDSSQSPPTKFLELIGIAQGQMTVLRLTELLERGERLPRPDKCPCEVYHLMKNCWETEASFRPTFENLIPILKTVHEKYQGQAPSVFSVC
Sequence of JAK1 (P23458 whole entry): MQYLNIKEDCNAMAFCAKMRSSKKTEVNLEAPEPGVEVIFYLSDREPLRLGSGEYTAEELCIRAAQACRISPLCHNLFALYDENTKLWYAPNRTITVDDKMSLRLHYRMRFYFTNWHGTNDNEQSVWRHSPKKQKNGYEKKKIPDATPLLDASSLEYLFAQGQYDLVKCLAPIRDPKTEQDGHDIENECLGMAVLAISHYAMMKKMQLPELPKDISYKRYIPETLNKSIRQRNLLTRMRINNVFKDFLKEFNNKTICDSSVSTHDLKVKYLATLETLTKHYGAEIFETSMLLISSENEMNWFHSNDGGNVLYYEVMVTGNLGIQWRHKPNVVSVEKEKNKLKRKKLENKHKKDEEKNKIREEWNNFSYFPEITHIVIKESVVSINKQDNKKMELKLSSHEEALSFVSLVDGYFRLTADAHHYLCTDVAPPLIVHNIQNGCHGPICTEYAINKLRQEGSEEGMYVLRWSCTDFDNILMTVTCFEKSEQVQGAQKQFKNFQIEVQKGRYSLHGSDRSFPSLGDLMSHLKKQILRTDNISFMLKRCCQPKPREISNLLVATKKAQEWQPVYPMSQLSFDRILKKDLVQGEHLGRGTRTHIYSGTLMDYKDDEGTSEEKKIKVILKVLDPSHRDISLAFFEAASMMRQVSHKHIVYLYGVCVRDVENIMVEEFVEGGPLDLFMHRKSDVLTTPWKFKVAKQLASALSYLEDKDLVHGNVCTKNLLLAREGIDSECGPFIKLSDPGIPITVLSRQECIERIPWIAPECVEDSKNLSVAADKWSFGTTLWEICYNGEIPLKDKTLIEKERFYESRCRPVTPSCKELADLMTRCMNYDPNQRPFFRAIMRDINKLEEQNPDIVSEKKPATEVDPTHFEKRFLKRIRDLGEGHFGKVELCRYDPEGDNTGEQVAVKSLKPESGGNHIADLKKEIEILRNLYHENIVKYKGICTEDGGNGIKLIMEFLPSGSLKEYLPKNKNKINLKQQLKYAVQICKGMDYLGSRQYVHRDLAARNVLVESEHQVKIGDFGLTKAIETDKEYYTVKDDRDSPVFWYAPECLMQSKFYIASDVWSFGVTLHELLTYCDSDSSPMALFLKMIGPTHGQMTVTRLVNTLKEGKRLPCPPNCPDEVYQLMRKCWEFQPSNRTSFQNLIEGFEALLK

Row | SMILES | JAK 1 (pKi) [1] | JAK 2 (pKi) [2] | Ki [3] [nM] | Ki [4] [nM] | IC50 [5] [nM] | Cacoverap Kp 10^−6 cm/sec [6] | Caco Kp 10^−6 cm/sec [6] | solubility at 4 h [7, 10] [µg/mL] | solubility at 4 h [7, 11] [µg/mL] | solubility at 4 h [7, 12] [µg/mL] | solubility at 4 h [7, 13] [µg/mL] | JAK 3 (pKi) [3] | Tyk 2 (pKi) [4] | Tall-1 IL2 pSTAT5 (pIC50) [5] | Solubility at PH 7.4 (μmol) [8] | Solubility in PEG400 (mg/mL) [9] | Solubility in Diisopropyl adipate (mg/mL) [9] | Solubility in MCT (mg/mL) [9] | Solubility in Propylene glycol (mg/mL) [9] | Ki ([1]; read-out: JAK 1 (pKi) (converted)) [nM]
1 | COCCOC(=O)N1[C@@H]2CCC[C@H]1C[C@H](N(C)c1nc(Nc3cc(C)[nH]n3)cc(O[C@@H]3CCOC3)n1)C2 [Compound 22] | A (A represents a pKi value ≥10 (Ki≤0.1 nM)) | A (A represents a pKi value ≥10 (Ki≤0.1 nM)) | 0.1 to 1 | 0.1 to 1 | 10 to 31.6 | B (B represents a value between 20×10^−6 and 35×10^−6 cm/sec) | B (B represents a value between 15×10^−6 and 30×10^−6 cm/sec) | < 5000 | > 10000 | > 10000 | > 10000 | – | – | – | – | – | – | – | – | –
2 | COC(=O)N1[C@@H]2CCC[C@H]1C[C@H](N(C)c1nc(Nc3cc(C)[nH]n3)cc(C3CCCO3)n1)C2 (stereo partly drawn) [Compound 11, methyl (1R,3s,5S)-3-(methyl(4-((5-methyl-1H-pyrazol-3-yl)amino)-6-(tetrahydrofuran-2-yl)pyrimidin-2-yl)amino)-9-azabicyclo[3.3.1]nonane-9-carboxylate] | A (A represents a pKi value ≥10 (Ki≤0.1 nM)) | B (B represents a pKi value between 9 and 10 (Ki between 1 nM and 0.1 nM)) | – | – | – | B (B represents a value between 20×10^−6 and 35×10^−6 cm/sec) | B (B represents a value between 15×10^−6 and 30×10^−6 cm/sec) | – | – | – | – | C (C represents a pKi value between 8 and 9 (Ki between 10 nM and 1 nM)) | B (B represents a pKi value between 9 and 10 (Ki between 1 nM and 0.1 nM)) | A (A represents a pIC50 value ≥8.0) | C (C represents a value between 50 and 250) | A (A represents a value above 10) | A (A represents a value above 10) | B (B represents a value between 5 and 10) | A (A represents a value above 10) | –
3 | Cc1cc(Nc2cc(O[C@@H]3CCOC3)nc(N(C)[C@@H]3C[C@H]4CCC[C@@H](C3)N4C(=O)OC3CCOCC3)n2)n[nH]1 [Compound 21] | A (A represents a pKi value ≥10 (Ki≤0.1 nM)) | A (A represents a pKi value ≥10 (Ki≤0.1 nM)) | 0.1 to 1 | 0.1 to 1 | 10 to 31.6 | B (B represents a value between 20×10^−6 and 35×10^−6 cm/sec) | B (B represents a value between 15×10^−6 and 30×10^−6 cm/sec) | 5000 to 10000 (≈ 9.23 to 18.5 mM) | > 10000 | > 10000 | > 10000 | – | – | – | – | – | – | – | – | –
4 | Cc1cc(Nc2cc(O[C@H]3CCOC3)nc(N(C)[C@@H]3C[C@H]4CCC[C@@H](C3)N4CC(=O)N3CCCC3)n2)n[nH]1 [Compound 31] | – | A (A represents a pKi value ≥10 (Ki≤0.1 nM)) | 0.1 to 1 | 0.1 to 1 | ≤ 10 | C (C represents a value between 12×10^−6 and 20×10^−6 cm/sec) | C (C represents a value below 15×10^−6 cm/sec) | < 5000 | < 5000 | < 5000 | < 5000 | – | – | – | – | – | – | – | – | 0.1 to 1
5 | Cc1cc(Nc2cc(C3CCCO3)nc(N(C)[C@@H]3C[C@H]4CCC[C@@H](C3)N4C(=O)OC3CCOCC3)n2)n[nH]1 (stereo partly drawn) [Compound 14, tetrahydro-2H-pyran-4-yl (1R,3s,5S)-3-(methyl(4-((5-methyl-1H-pyrazol-3-yl)amino)-6-(tetrahydrofuran-2-yl)pyrimidin-2-yl)amino)-9-azabicyclo[3.3.1]nonane-9-carboxylate] | A (A represents a pKi value ≥10 (Ki≤0.1 nM)) | A (A represents a pKi value ≥10 (Ki≤0.1 nM)) | – | – | – | B (B represents a value between 20×10^−6 and 35×10^−6 cm/sec) | B (B represents a value between 15×10^−6 and 30×10^−6 cm/sec) | – | – | – | – | C (C represents a pKi value between 8 and 9 (Ki between 10 nM and 1 nM)) | B (B represents a pKi value between 9 and 10 (Ki between 1 nM and 0.1 nM)) | B (B represents a pIC50 value between 7.5 (included) and 8.0) | D (D represents a value between 10 and 50) | A (A represents a value above 10) | A (A represents a value above 10) | B (B represents a value between 5 and 10) | A (A represents a value above 10) | –
6 | COCCOC(=O)N1[C@@H]2CCC[C@H]1C[C@H](N(C)c1nc(Nc3cc(C)[nH]n3)cc(C3CCCO3)n1)C2 (stereo partly drawn) [Compound 13, 2-methoxyethyl (1R,3s,5S)-3-(methyl(4-((5-methyl-1H-pyrazol-3-yl)amino)-6-(tetrahydrofuran-2-yl)pyrimidin-2-yl)amino)-9-azabicyclo[3.3.1]nonane-9-carboxylate] | A (A represents a pKi value ≥10 (Ki≤0.1 nM)) | A (A represents a pKi value ≥10 (Ki≤0.1 nM)) | – | – | – | – | – | – | – | – | – | C (C represents a pKi value between 8 and 9 (Ki between 10 nM and 1 nM)) | B (B represents a pKi value between 9 and 10 (Ki between 1 nM and 0.1 nM)) | B (B represents a pIC50 value between 7.5 (included) and 8.0) | C (C represents a value between 50 and 250) | A (A represents a value above 10) | A (A represents a value above 10) | B (B represents a value between 5 and 10) | A (A represents a value above 10) | –
